Assays:
Experiment in all cases: relative viability (nuclei count vs DMSO), 5 days (fraction); higher = more cells survive
NCI-H2228 = test system: NCI-H2228
Summary of the method: (§1)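 Lung cancer cell lines, seeded in 1536-well plates, were treated the following day by pin tool with a single drug or with five library-drug doses (not always all listed) in √10 steps on top of a fixed anchor-drug dose. Cells were fixed and nuclei stained in one step after 5 days, and nuclei were counted. Relative viability is the nuclei count for treated wells divided by that for vehicle wells, reported as medians of duplicate plates.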

NCI-H2347 = test system: NCI-H2347
Summary of the method: as §1

NCI-H3122 = test system: NCI-H3122
Summary of the method: as §1

NCI-H322M = test system: NCI-H322M
Summary of the method: as §1

NCI-H358 = test system: NCI-H358
Summary of the method: as §1

NCI-H441 = test system: NCI-H441
Summary of the method: as §1

NCI-H460 = test system: NCI-H460
Summary of the method: as §1

NCI-H520 = test system: NCI-H520
Summary of the method: as §1

NCI-H596 = test system: NCI-H596
Summary of the method: as §1

NCI-H650 = test system: NCI-H650
Summary of the method: as §1

NCI-H838 = test system: NCI-H838
Summary of the method: as §1

SW 1573 = test system: SW 1573
Summary of the method: as §1

Cc1cnc(-c2cnc(NCCNc3ccc(C#N)cn3)nc2-c2ccc(Cl)cc2Cl)[nH]1 + Cc1cc(Nc2cc(N3CCN(C)CC3)nc(Sc3ccc(NC(=O)C4CC4)cc3)n2)n[nH]1 [Tozasertib] (partner 0.1 µM)
relative viability (NCI-H2228; first compound 0.8 µM): 0.297 | relative viability (NCI-H2228; first compound 2.53 µM): 0.268 | relative viability (NCI-H2347; first compound 0.08 µM): 0.59 | relative viability (NCI-H2347; first compound 0.253 µM): 0.466 | relative viability (NCI-H2347; first compound 0.8 µM): 0.411 | relative viability (NCI-H2347; first compound 2.53 µM): 0.481 | relative viability (NCI-H3122; first compound 0.08 µM): 0.414 | relative viability (NCI-H3122; first compound 0.8 µM): 0.392 | relative viability (NCI-H3122; first compound 2.53 µM): 0.33 | relative viability (NCI-H322M; first compound 0.08 µM): 0.51 | relative viability (NCI-H322M; first compound 0.253 µM): 0.464 | relative viability (NCI-H322M; first compound 0.8 µM): 0.438 | relative viability (NCI-H322M; first compound 2.53 µM): 0.466 | relative viability (NCI-H358; first compound 0.08 µM): 0.101 | relative viability (NCI-H358; first compound 0.253 µM): 0.0983 | relative viability (NCI-H358; first compound 0.8 µM): 0.137 | relative viability (NCI-H358; first compound 2.53 µM): 0.11 | relative viability (NCI-H441; first compound 0.08 µM): 0.775 | relative viability (NCI-H441; first compound 0.253 µM): 0.654 | relative viability (NCI-H441; first compound 0.8 µM): 0.602 | relative viability (NCI-H441; first compound 2.53 µM): 0.405 | relative viability (NCI-H460; first compound 0.08 µM): 0.48 | relative viability (NCI-H460; first compound 0.253 µM): 0.152 | relative viability (NCI-H460; first compound 0.8 µM): 0.101 | relative viability (NCI-H460; first compound 2.53 µM): 0.137 | relative viability (NCI-H520; first compound 0.08 µM): 0.517 | relative viability (NCI-H520; first compound 0.253 µM): 0.444 | relative viability (NCI-H520; first compound 0.8 µM): 0.397 | relative viability (NCI-H520; first compound 2.53 µM): 0.499 | relative viability (NCI-H596; first compound 0.08 µM): 0.925 | relative viability (NCI-H596; first compound 0.253 µM): 0.752 | relative viability (NCI-H596; first compound 0.8 µM): 0.839 | relative viability (NCI-H596; first compound 2.53 µM): 0.793 | relative viability (NCI-H650; first compound 0.08 µM): 0.726 | relative viability (NCI-H650; first compound 0.253 µM): 0.746 | relative viability (NCI-H650; first compound 0.8 µM): 0.675 | relative viability (NCI-H650; first compound 2.53 µM): 0.734 | relative viability (NCI-H838; first compound 0.08 µM): 0.293 | relative viability (NCI-H838; first compound 0.253 µM): 0.235 | relative viability (NCI-H838; first compound 0.8 µM): 0.281 | relative viability (NCI-H838; first compound 2.53 µM): 0.272 | relative viability (SW 1573; first compound 0.08 µM): 0.177 | relative viability (SW 1573; first compound 0.253 µM): 0.138 | relative viability (SW 1573; first compound 0.8 µM): 0.302 | relative viability (SW 1573; first compound 2.53 µM): 0.156

Reference: the supplement of paper PMC10307832
